Legend:
Colon26 tumor cells = assay: Colon26 tumor growth, combination with cyclophosphamide (Example 8); type: in vivo, Balb/c mice; conditions: anti-SEMA4D 50 mg/kg IP weekly; cyclophosphamide 50 mg/kg IP days 12 and 20; endpoint 1000 mm3
Procedure: Experimental Design. 5×10^5 Colon26 tumor cells were implanted subcutaneously into the flank of female Balb/c mice. […] There were 20 mice per group. Tumors were measured with calipers 3×/week starting 5 days post implant. Animals were sacrificed when tumor volume reached 1000 mm3.
Tumor growth was measured by calipers and measurements were used to calculate tumor volume using the formula (w^2×l)/2, where w=width, smaller measurement, and l=length, in mm, of the tumor.
Regression is the lack of palpable tumor, defined by a tumor measuring <50 mm3 for at least two consecutive measurements.

Colon26 = assay: Summary of tumor regressions in Colon26 model (Example 13, FIG. 13); type: in vivo, mice; conditions: summary of experiments (FIG. 13)
Source text: Experimental Design. […] The experiment design of the respective experiments is summarized in the above Examples.

For `O=P1(N(CCCl)CCCl)NCCCO1` (centres unmarked) [cyclophosphamide], the “Tumor Growth Delay (TGD)” value (Colon26 tumor cells) was 96% and the tumor regression (Colon26) was 10%.
